Common to all, as to format: cell-based
In assay [1] the target is T1, human S1P5 receptor (S1PR5) (Homo sapiens, UniProt Q9H228).
T1 construct: host or cells: CHO-K1
In words: Intracellular Ca2+ release (method 1), agonist potency and efficacy, S1P5. The following applies: for Emax: read-out: hS1P5 EMax. Here is the method:
(§1) Agonistic activity and efficacy of compounds was assessed in recombinant cells using method 1 described below.
(§2) Agonist potency and efficacy were assessed by measurement of intracellular Ca^2+ release. Recombinant CHO-K1 cells (Euroscreen, Brussels, Belgium) expressing human S1PR5, S1PR1, S1PR3 or S1PR4 receptors, aequorin, and GTP binding protein Gq/i5 were cultured using a medium containing nutrient mixture F-12 Ham (Sigma-Aldrich) with 10% FBS, and 100 μg/mL gentamicin and equilibrated at 5% CO2.
(§3) 15,000 cells in 20 μL medium were seeded into Biocoat poly-D-Lysine coated 384 well plates (Becton Dickinson #35-6663) and grown to 95% confluency after 24 h.
(§4) Culture medium was replaced by an assay buffer consisting of HBBS with Ca^2+ and Mg^2+ (Invitrogen #14025-050), 20 mmol/L Hepes (Sigma-Aldrich #H-3375), 2.5 mmol/L probenecid (Sigma-Aldrich #P-8761, and 0.1% BSA (Sigma-Aldrich #A-7030) pH 7.4. The Calcium 5 no-wash FLIPR assay kit (Molecular Devices #5000625) was performed as described in the kit instructions. Cells were incubated with Calcium 5 dye for 1 h at 37° C., 5% CO2 in the dark. After 45 min adaptation to RT assessment of agonist stimulation of intracellular Ca^2+ release was performed by addition of test compounds at various concentrations obtained by serial dilution. Phospho-fingolimod was used as positive control and reference agonist (intrinsic activity 100%).
(§5) Agonism of test compounds at the human S1Px receptors were characterized by the EC50 values (potencies) deduced from a nonlinear 4 parametric logistic curve fit to the measured fluorescence data after normalization to the lower and upper plateaus of the fitted reference agonist's (phospho-fingolimod)effect curve and by their efficacy (Emax) values represented by their maximum achievable effects in % of the reference agonist's efficacy, which is defined as an Emax of 100%.

Assay [2] deals with T2, human S1P1 receptor (S1PR1) (Homo sapiens, UniProt P21453).
T2 construct: host or cells: CHO-K1
The experiment in a line: Intracellular Ca2+ release (method 1), agonist potency, S1P1. The following applies: CHO-K1 cells expressing human S1PR1. Here is the method:
as §1, §2, §3, §4, §5

Assay [3] concerns the target T3, human S1P3 receptor (S1PR3) (Homo sapiens, UniProt Q99500).
T3 construct: host or cells: CHO-K1
In words: Intracellular Ca2+ release (method 1), agonist potency, S1P3. Here is the method: as §1, §2, §3, §4, §5

Assay [4] addresses T4, human S1P4 receptor (S1PR4) (Homo sapiens, UniProt O95977).
T4 construct: host or cells: CHO-K1
T4 sequence (O95977 1-384): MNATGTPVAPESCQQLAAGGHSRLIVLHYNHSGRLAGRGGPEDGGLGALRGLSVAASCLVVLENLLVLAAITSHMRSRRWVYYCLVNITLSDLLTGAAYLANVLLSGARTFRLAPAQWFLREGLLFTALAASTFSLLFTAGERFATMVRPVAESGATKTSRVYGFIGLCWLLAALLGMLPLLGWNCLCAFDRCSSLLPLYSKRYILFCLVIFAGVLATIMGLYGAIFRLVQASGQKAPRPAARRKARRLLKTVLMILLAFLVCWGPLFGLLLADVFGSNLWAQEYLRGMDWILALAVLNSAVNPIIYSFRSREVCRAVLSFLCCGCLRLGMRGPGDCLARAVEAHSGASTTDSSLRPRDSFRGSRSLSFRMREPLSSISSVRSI
The experiment in a line: Intracellular Ca2+ release (method 1), agonist potency, S1P4. The following applies: CHO-K1 cells expressing human S1PR4; cells given as bound. The procedure: as §1, §2, §3, §4, §5

The mark [5] stands for this setting: maximum effect in % of reference agonist phospho-fingolimod (100%).
[6] abbreviates: recombinant CHO-K1 cells expressing human S1PR5, aequorin, Gq/i5, Ca2+ release, read-out: S1P5 EC50 range.
Setting [7] is: text value for reference compounds lacking the spiro-linked group, read-out: S1P5 EC50.
Setting [8] is: value for reference compounds, % of phospho-fingolimod efficacy.

Read-outs that look alike come from different tables or passages of the source.

T2 sequence (P21453 whole entry): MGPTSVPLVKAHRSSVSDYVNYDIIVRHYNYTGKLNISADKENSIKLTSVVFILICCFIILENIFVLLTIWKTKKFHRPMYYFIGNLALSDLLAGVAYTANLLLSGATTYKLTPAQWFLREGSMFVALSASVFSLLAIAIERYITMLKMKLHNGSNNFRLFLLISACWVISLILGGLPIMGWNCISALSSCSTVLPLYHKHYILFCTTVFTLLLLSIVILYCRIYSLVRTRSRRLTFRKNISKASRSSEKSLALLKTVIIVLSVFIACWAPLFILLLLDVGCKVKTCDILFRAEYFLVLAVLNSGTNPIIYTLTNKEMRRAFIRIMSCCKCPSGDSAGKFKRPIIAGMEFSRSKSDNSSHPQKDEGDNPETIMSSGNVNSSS
T3 sequence (Q99500 whole entry): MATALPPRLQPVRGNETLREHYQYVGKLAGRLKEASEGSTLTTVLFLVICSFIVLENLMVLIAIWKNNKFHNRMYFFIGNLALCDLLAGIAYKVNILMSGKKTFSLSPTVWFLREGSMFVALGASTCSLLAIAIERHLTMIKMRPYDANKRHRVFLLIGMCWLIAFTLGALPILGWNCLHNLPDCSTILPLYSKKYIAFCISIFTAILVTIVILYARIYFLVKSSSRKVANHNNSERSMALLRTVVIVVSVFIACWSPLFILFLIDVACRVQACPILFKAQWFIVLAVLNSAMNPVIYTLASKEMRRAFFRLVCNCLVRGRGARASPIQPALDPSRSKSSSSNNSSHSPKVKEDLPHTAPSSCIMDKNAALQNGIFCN
T1 sequence (Q9H228 whole entry): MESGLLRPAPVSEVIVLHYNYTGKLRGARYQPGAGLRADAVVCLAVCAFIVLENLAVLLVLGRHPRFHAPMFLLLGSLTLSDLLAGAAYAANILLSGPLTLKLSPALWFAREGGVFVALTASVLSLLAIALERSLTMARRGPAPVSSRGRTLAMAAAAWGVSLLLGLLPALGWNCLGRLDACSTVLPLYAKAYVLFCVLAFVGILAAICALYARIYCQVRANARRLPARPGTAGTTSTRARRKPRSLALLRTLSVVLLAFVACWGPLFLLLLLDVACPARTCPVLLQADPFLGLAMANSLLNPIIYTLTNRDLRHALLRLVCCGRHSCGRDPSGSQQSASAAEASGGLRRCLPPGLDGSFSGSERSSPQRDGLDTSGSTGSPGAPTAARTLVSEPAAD

For the compound `CC(C)c1ccc(C#Cc2ccc3c(c2)C2(CC2)CN(CCCC(=O)O)C3)cc1` [Compound 1, 2′-(3-carboxypropyl)-6′-((4-isopropylphenyl)ethynyl)-2′,3′-dihydro-1′H-spiro[cyclopropane-1,4′-isoquinolin]-2′-ium 2,2,2-trifluoroacetate], the Emax in assay [1] (setting [5]) fell in the range of 50 to 100%. Further, the EC50 in assay [1] (setting [6]) was less than 0.01 µM; in assay [2], 0.1 to 1 µM; in assay [3] (CHO-K1 cells expressing human S1PR3), greater than 1 µM; in assay [4], greater than 1 µM.
On to `CC(CC(=O)O)CN1Cc2ccc(C#Cc3ccc(OC(C)C)nc3)cc2C2(CC2)C1` (centres unmarked) [Compound 59, 4-(6′-((6-isopropoxypyridin-3-yl)ethynyl)-1′H-spiro[cyclopropane-1,4′-isoquinolin]-2′(3′H)-yl)-3-methylbutanoic acid], for which the Emax in assay [1] (setting [5]) is 50 to 100%. The EC50 in assay [1] (setting [6]) is less than 0.01 µM; in assay [2] (cells given as bound), greater than 1 µM; in assay [4], greater than 1 µM.
Consider `CC(CC(=O)O)CN1Cc2ccc(C#Cc3ccc(C(C)C)cc3)cc2C2(CC2)C1` (centres unmarked) [Compound 60, 4-(6′-((4-isopropylphenyl)ethynyl)-1′H-spiro[cyclopropane-1,4′-isoquinolin]-2′(3′H)-yl)-3-methylbutanoic acid], for which, in assay [1] (setting [5]), the Emax fell in the range of 50 to 100%. Moreover, the EC50 in assay [1] (setting [6]) was less than 0.01 µM; in assay [2] (cells given as bound), greater than 1 µM; in assay [4] it was greater than 1 µM.
For the compound `CC(CC(=O)O)CN1Cc2ccc(C#Cc3ccc(OC(F)(F)F)c(F)c3)cc2C2(CC2)C1` (centres unmarked) [Compound 61, 4-(6′-((3-fluoro-4-(trifluoromethoxy)phenyl)ethynyl)-1′H-spiro[cyclopropane-1,4′-isoquinolin]-2′(3′H)-yl)-3-methylbutanoic acid], the Emax in assay [1] (setting [5]) lay in the range of 50 to 100%. Also, the EC50 in assay [1] (setting [6]) was less than 0.01 µM; in assay [2] (cells given as bound), greater than 1 µM; in assay [4] it was greater than 1 µM.
With `CC(CC(=O)O)CN1Cc2ccc(C#Cc3ccc(OC(C)C)cc3)cc2C2(CC2)C1` (centres unmarked) [Compound 62, 4-(6′-((4-isopropoxyphenyl)ethynyl)-1′H-spiro[cyclopropane-1,4′-isoquinolin]-2′(3′H)-yl)-3-methylbutanoic acid], in assay [1] (setting [5]), the Emax was greater than 100%. Moreover, the EC50 was less than 0.01 µM in assay [1] (setting [6]), greater than 1 µM in assay [2] (cells given as bound) and greater than 1 µM in assay [4].
Take `CCOc1ccc(C#Cc2ccc3c(c2)C2(CC2)CN(CC(C)CC(=O)O)C3)cc1` (centres unmarked) [Compound 63, 4-(6′-((4-ethoxyphenyl)ethynyl)-1′H-spiro[cyclopropane-1,4′-isoquinolin]-2′(3′H)-yl)-3-methylbutanoic acid]: the Emax in assay [1] (setting [5]) fell in the range of 50 to 100%. Also, the values for the EC50 in assay [1] (setting [6]), in assay [2] (cells given as bound) and in assay [4] were 0.01 to 0.1 µM, greater than 1 µM and greater than 1 µM, respectively.
For the compound `CC(CC(=O)O)CN1Cc2ccc(C#Cc3ccc(OC4CCCC4)cc3)cc2C2(CC2)C1` (centres unmarked) [Compound 64, 4-(6′-((4-(cyclopentyloxy)phenyl)ethynyl)-1′H-spiro[cyclopropane-1,4′-isoquinolin]-2′(3′H)-yl)-3-methylbutanoic acid], the Emax in assay [1] (setting [5]) was greater than 100%. The EC50 is 0.01 to 0.1 µM in assay [1] (setting [6]), greater than 1 µM in assay [2] (cells given as bound) and greater than 1 µM in assay [4].
As to `CC(CC(=O)O)CN1Cc2ccc(C#Cc3ccc(OC(F)(F)F)cc3)cc2C2(CC2)C1` (centres unmarked) [Compound 65, 3-methyl-4-(6′-((4-(trifluoromethoxy)phenyl)ethynyl)-1′H-spiro[cyclopropane-1,4′-isoquinolin]-2′(3′H)-yl)butanoic acid], the Emax in assay [1] (setting [5]) is greater than 100%. Further, the results for the EC50 in assay [1] (setting [6]), in assay [2] (cells given as bound) and in assay [4] were 0.1 to 1 µM, greater than 1 µM and greater than 1 µM, respectively.
`CC(CC(=O)O)CN1Cc2ccc(C#Cc3cccc(F)c3F)cc2C2(CC2)C1` (centres unmarked) [Compound 66, 4-(6′-((2,3-difluorophenyl)ethynyl)-1′H-spiro[cyclopropane-1,4′-isoquinolin]-2′(3′H)-yl)-3-methylbutanoic acid]: the Emax in assay [1] (setting [5]) lay in the range of 50 to 100%. Besides, the EC50 in assay [1] (setting [6]) was 0.1 to 1 µM; in assay [2] (cells given as bound), greater than 1 µM; in assay [4] it was greater than 1 µM.
`CCOc1cc(C)c(C#Cc2ccc3c(c2)C2(CC2)CN(CC(C)CC(=O)O)C3)cn1` (centres unmarked) [Compound 67, 4-(6′-((6-ethoxy-4-methylpyridin-3-yl)ethynyl)-1′H-spiro[cyclopropane-1,4′-isoquinolin]-2′(3′H)-yl)-3-methylbutanoic acid]: in assay [1] (setting [5]), the Emax was 50 to 100%. Further, the EC50 in assay [1] (setting [6]) is 0.01 to 0.1 µM; in assay [2] (cells given as bound), greater than 1 µM; in assay [4] it was greater than 1 µM.
Regarding `CC(CC(=O)O)CN1Cc2ccc(C#Cc3ccsc3)cc2C2(CC2)C1` (centres unmarked) [Compound 68, 3-methyl-4-(6′-(thiophen-3-ylethynyl)-1′H-spiro[cyclopropane-1,4′-isoquinolin]-2′(3′H)-yl)butanoic acid], the Emax in assay [1] (setting [5]) lay in the range of 50 to 100%. The EC50 was 0.01 to 0.1 µM in assay [1] (setting [6]), greater than 1 µM in assay [2] (cells given as bound) and greater than 1 µM in assay [4].
As for `CCOc1ccc(C#Cc2ccc3c(c2)C2(CC2)CN(CC(C)CC(=O)O)C3)cc1F` (centres unmarked) [Compound 69, 4-(6′-((4-ethoxy-3-fluorophenyl)ethynyl)-1′H-spiro[cyclopropane-1,4′-isoquinolin]-2′(3′H)-yl)-3-methylbutanoic acid], in assay [1] (setting [5]), the Emax is greater than 100%. Besides, the EC50 in assay [1] (setting [6]) was 0.01 to 0.1 µM; in assay [2] (cells given as bound) it was greater than 1 µM; in assay [4], greater than 1 µM.
Regarding `CC(C)Oc1ccc(C#Cc2ccc3c(c2)C2(CC2)CN(C2CC(C(=O)O)C2)C3)nc1` (centres unmarked) [Compound 70, 3-(6′-((5-isopropoxypyridin-2-yl)ethynyl)-1′H-spiro[cyclopropane-1,4′-isoquinolin]-2′(3′H)-yl)cyclobutanecarboxylic acid], the Emax in assay [1] (setting [5]) fell in the range of 50 to 100%. Moreover, the values for the EC50 in assay [1] (setting [6]), in assay [2] (cells given as bound) and in assay [4] were 0.01 to 0.1 µM, greater than 1 µM and greater than 1 µM, respectively.
For `O=C(O)C1CC(N2Cc3ccc(C#Cc4ccc(OC(F)(F)F)c(F)c4)cc3C3(CC3)C2)C1` (centres unmarked) [Compound 71, 3-(6′-((3-fluoro-4-(trifluoromethoxy)phenyl)ethynyl)-1′H-spiro[cyclopropane-1,4′-isoquinolin]-2′(3′H)-yl)cyclobutanecarboxylic acid], the Emax in assay [1] (setting [5]) lay in the range of 50 to 100%. Moreover, the EC50 in assay [1] (setting [6]) is 0.01 to 0.1 µM; in assay [2] (cells given as bound), greater than 1 µM; in assay [4], greater than 1 µM.
As for `CCOc1ccc(C#Cc2ccc3c(c2)C2(CC2)CN(C2CC(C(=O)O)C2)C3)cc1F` (centres unmarked) [Compound 72, 3-(6′-((4-ethoxy-3-fluorophenyl)ethynyl)-1′H-spiro[cyclopropane-1,4′-isoquinolin]-2′(3′H)-yl)cyclobutanecarboxylic acid], in assay [1] (setting [5]), the Emax lay within 50 to 100%. Besides, the EC50 in assay [1] (setting [6]) was 0.01 to 0.1 µM; in assay [2] (cells given as bound), greater than 1 µM; in assay [4] it was greater than 1 µM.
`CCOc1ccc(C#Cc2ccc3c(c2)C2(CC2)CN(C2CC(C(=O)O)C2)C3)nc1` (centres unmarked) [Compound 73, 3-(6′-((5-ethoxypyridin-2-yl)ethynyl)-1′H-spiro[cyclopropane-1,4′-isoquinolin]-2′(3′H)-yl)cyclobutanecarboxylic acid]: in assay [1] (setting [5]), the Emax lay within 50 to 100%. The EC50 in assay [1] (setting [6]) is 1 to 10 µM; in assay [2] (cells given as bound), greater than 1 µM; in assay [4], greater than 1 µM.
Consider `O=C(O)CCN1CCc2cc(C#Cc3cccc(F)c3F)ccc2C1` [Reference compound 1, 3-(6-((2,3-difluorophenyl)ethynyl)-3,4-dihydroisoquinolin-2(1H)-yl)propanoic acid, reference compound], for which the EC50 in assay [1] (setting [7]) was 0.029 µM; in assay [3] (value for reference compounds), greater than 1 µM. Also, in assay [1] (setting [8]), the Emax was 60%.
The matching figures for `O=C(O)CCN1CCc2cc(C#Cc3c(Cl)cccc3Cl)ccc2C1` [Reference compound 2, 3-(6-((2,6-dichlorophenyl)ethynyl)-3,4-dihydroisoquinolin-2 (1H)-yl)propanoic acid, reference compound]: 0.0192 µM, greater than 1 µM and 41%.

The values are drawn from patent US20210147381A1, “1,2,3,4-SUBSTITUTED QUINOLINE COMPOUNDS AS SIP MODULATORS” (AbbVie Deutschland GmbH & Co. KG, priority 2017, published 2021).
